Literature values as cited in US7205335B2, “Preparation of cis-fused 3,3a,8,12b-tetrahydro-2H-dibenzo[3,4:6,7]cyclohepta[1,2-b]furan derivatives” (priority 2001, dated 2007).

Conditions: dose of 300 mg/kg

SMILES: CNCC1CC2c3ccccc3Cc3ccccc3C2O1.O=C(O)C(=O)O (racemic) [(±)-3,3a,8,12b-tetrahydro-N-methyl-2H-dibenzo[3,4:6,7]-cyclohepta-[1,2-b]furan-2-methanamine oxalic acid]
- activity as an antidepressant: inactive
